The text below walks through data of paper PMC10012172, “Chimeric Peptidomimetic Antibiotic Efficiently Neutralizes Lipopolysaccharides (LPS) and Bacteria-Induced Activation of RAW Macrophages” (ACS Infectious Diseases, 2023).

For experiment [1], the system named is RAW264.7 macrophages stimulated with treated P. aeruginosa. In words: Silent killing: stimulation of macrophages with nonviable bacteria (TNF-α ELISA). The conditions noted are these: RAW264.7 2 h; for macrophage activation (TNF-α) by peptide-treated P. aeruginosa compared to viable untreated bacteria: bacteria 1 × 10^6 CFU/mL treated with 20 μM peptide 1 h at 37 °C, three independent experiments. The experiment is classed as cell-based. As to the method: Figure 7 (A) Determination of macrophage activation in response to viable and nonviable bacteria. P. aeruginosa was treated with gentamicin, heat treatment, CATH-2 (control), CPA, murepavadin, MHM, PMB, or PMBN (20 μM of each) and subsequently added to RAW264.7 macrophages. Production of TNF-α was measured using ELISA after 2 h of treatment. (B) Viability of P. aeruginosa after treatment was checked by plating on TSA plates. Data is plotted as the mean ± SEM of three independent experiments. Significant differences were determined by ordinary one-way ANOVA (Tukey’s multiple comparison test).
RAW264.7 cells were seeded (7.5 × 10^4 cells/well) as described above. P. aeruginosa (diluted to 1 × 10^6 CFU/mL in DMEM) was treated separately with heat (1 h at 90 °C), 1 mg/mL gentamicin (1 h at 37 °C), 20 μM CPA (1 h at 37 °C), 20 μM PMB (1 h at 37 °C), 20 μM murepavadin (1 h at 37 °C), 20 μM MHM (1 h at 37 °C), 20 μM CATH-2 (1 h at 37 °C), and DMEM only (untreated sample) (1 h at 4 °C). After treatment, the bacteria were added to the RAW264.7 cells for 2 h of incubation at 37 °C. After that, TNF-α production was determined in the supernatant by ELISA.
In general terms: ELISA stands for enzyme-linked immunosorbent assay.

For experiment [2], the system named is Escherichia coli (clinical isolate). In kind it is cell-based. The conditions noted are these: clinical isolate, 3 h. The protocol: (§1) Figure 2 Determination of MBC values for (A) E. coli and (B) P. aeruginosa. Surviving bacterial colonies were detected after incubation with tested peptides for 3 h in MHB.
(§2) Bacterial strains used in this study were clinical isolates of Escherichia coli and Pseudomonas aeruginosa provided by Utrecht University Medical Center, Department of Medical Microbiology, Utrecht, The Netherlands. Both strains were cultured in Mueller Hinton broth (MHB) (Millipore, Sigma-Aldrich).
(§3) Logarithmic growth phase of an o/n bacterial culture was obtained by diluting it 1:100 in MHB and then incubating it for 3 h at 37 °C while shaking. After that, the OD620 of the bacterial suspension was measured and the bacterial solution was diluted to 2 × 10^6 colony forming units/mL (CFU/mL). Bacteria and peptides in MHB were mixed 1:1 (v/v) and incubated for 3 h at 37 °C in a polypropylene round-bottom 96 well-plate (Corning Costar, Glendale, AZ). Subsequently, 10-fold dilutions were made and plated out on Tryptone Soy Agar (TSA) plates and incubated for 24 h at 37 °C to count colonies.

Experiment [3] concerns Pseudomonas aeruginosa (clinical isolate). The experiment is classed as cell-based. The conditions noted are these: 3 h. The protocol:
as §1, §2, §3

For experiment [4], the system named is E. coli O111:B4 LPS stimulated RAW264.7 macrophages. As to the kind of experiment: Nitric oxide inhibition assay (Griess), E. coli O111:B4 LPS. The experiment is classed as cell-based. The conditions noted are these: smooth E. coli O111:B4 LPS 20 ng/mL; 0–5 μM peptide; 24 h. The protocol:
(§4) Figure 3 Nitric oxide inhibition in LPS stimulated RAW264.7 by peptide antibiotics. RAW264.7 cells were stimulated with smooth type LPSs (A) E. coli O111:B4 LPS and (B) P. aeruginosa LPS and rough type LPS (C) E. coli K-12 LPS in the presence of different concentrations of peptides: CPA, murepavadin, MHM, PMB, and PMBN. NO production was measured by Griess assay. Shown are the mean ± SEM of three independent experiments. (D) Schematic diagram of the general structure of lipopolysaccharides. It consists of three main subunits: lipid A, the core region, and the O-antigen. Lipid A and the core-region form rough (R)-type LPS. Lipid A, the core-region, and the O-antigen together form smooth (S)-type LPS.
(§5) RAW264.7 cells were seeded (5 × 10^4 cells/well) in a 96-well plate and left at 37 °C for overnight adherence. Then, cells were stimulated with […] types of LPS: 20 ng/mL LPS originating from E. coli O111:B4 (LPS-EB, InvivoGen), 50 ng/mL LPS from P. aeruginosa (PA-10 LPS, Sigma -Aldrich), and 5 ng/mL LPS from E. coli K-12 (LPS-EK, InvivoGen) in the presence of 0–5 μM peptides in DMEM for 24 h. After incubation, the nitrite content (corresponding to nitric oxide produced but quickly oxidized in watery solutions to nitrite) in the supernatant was measured using the Griess assay.[28]
(Nitrite, measured by Griess reagent, commonly stands in for NO production.)

Experiment [5] concerns P. aeruginosa 10 LPS stimulated RAW264.7 macrophages. In words: Nitric oxide inhibition assay (Griess), P. aeruginosa 10 LPS. In kind it is cell-based. The conditions noted are these: smooth P. aeruginosa 10 LPS 50 ng/mL; 0–5 μM peptide; 24 h. As to the method:
as §4, §5

In experiment [6] the test system is E. coli O111:B4 LPS stimulated RAW264.7 macrophages. As to the kind of experiment: IL-10 release ELISA in LPS stimulated macrophages. The experiment is classed as cell-based. The conditions noted are these: 20 ng/mL E. coli O111:B4 LPS, 24 h; for concentration inhibiting IL-10 release: unable to inhibit up to highest concentration. The protocol: (§6) Figure 4 Peptides modulation of cytokine expression in RAW264.7 cells stimulated with LPS. RAW macrophages were stimulated with 20 ng/mL E. coli LPS in the presence of different concentrations of peptide antibiotics. (A) TNF-α and (B) IL-10 release was measured by ELISA in duplicates. Shown are the mean ± SEM of three independent experiments.
as §5
(§7) A sandwich ELISA was used to measure TNF-α and IL-10 concentrations in the supernatant of the same treatment (24 h) used for nitrite measurement, using ELISA Duoset kits (R&D systems, Minneapolis, MN) according to the manufacturer’s protocol.

Experiment [7] deals with E. coli O111:B4 LPS. In words: Isothermal titration calorimetry (ITC) of LPS binding. The conditions noted are these: 30 μM peptide, 200 μM LPS in 50% PBS, 37 °C, representative of two measurements. As to the method: Figure 6 (A) Binding profile of LPS and the peptides using ITC. Binding signatures (ΔG, ΔH. and −TΔS) plotted for binding events of LPS with peptides. (B) Spectra of the interaction between LPS and peptides. Murepavadin, PMB, MHM, PMBN, and CPA (30 μM) were titrated against 200 μM E. coli O111:B4 LPS, and heat rates were recorded. Shown is a representative of two measurements.
ITC measurements were performed in a low volume NanoITC (TA Instruments-Waters LLC, New Castle, DE). Two hundred micromolar LPS (from E. coli O111:B4) was prepared in 50% PBS. Peptides of 30 μM concentration were prepared in identical buffer. Three hundred microliters of the peptide solution was added to the chamber (chamber volume is 169 μL, so the rest of the volume flows out and rests around the chamber), and 50 μL of LPS was added to the syringe. At 37 °C, 2 μL of LPS solution was injected into the chamber every 300 s, except the first injection, which consists of 0.96 μL. The experiments were performed at 37 °C while stirring at 300 rpm. The data was analyzed with the NanoAnalyze Software (TA Instruments, Asse, Belgium).
On the technique in general: In ITC the heat of successive injections is recorded.

Experiment [8] concerns E. coli K-12 LPS stimulated RAW264.7 macrophages. As to the kind of experiment: Nitric oxide inhibition assay (Griess), E. coli K-12 LPS. The experiment is classed as cell-based. The conditions noted are these: rough E. coli K-12 LPS 5 ng/mL; 0–5 μM peptide; 24 h. The protocol:
as §4, §5

Experiment [9] has as its system E. coli O111:B4 LPS stimulated RAW264.7 macrophages. In words: TNF-α release ELISA in LPS stimulated macrophages. The experiment is classed as cell-based. The conditions noted are these: 20 ng/mL E. coli O111:B4 LPS, 24 h; for concentration inhibiting TNF-α release: unable to inhibit up to highest concentration. As to the method: as §6, §5, §7

By Kd is commonly meant a measure of binding affinity in units of concentration. Low values mean tighter binding, high ones weaker binding.

Where a SMILES comes first, the peptide text is derived from it. Bridges are numbered along the chain shown (N, C = ends). [ ]: non-standard residue; d: D form. Tle = CC(C)(C)[C@H](N)C(=O)O; dDab = NCC[C@@H](N)C(=O)O; hSer = N[C@@H](CCO)C(=O)O; Orn = NCCC[C@H](N)C(=O)O; Dab = NCC[C@H](N)C(=O)O

`CNC(C)C1CCC(N)C(OC2C(N)CC(N)C(OC3OCC(C)(O)C(NC)C3O)C2O)O1` (centres unmarked) [Gentamicin]: in experiment [1] (bacteria treated with 1 mg/mL gentamicin 1 h at 37 °C), the “macrophage activation (TNF-α) by gentamicin-killed P. aeruginosa compared to viable untreated bacteria” value was “almost same level as viable untreated bacteria”.
Consider `CC(C)C[C@@H]1NC(=O)[C@@H](Cc2ccccc2)NC(=O)[C@H](CCN)NC(=O)[C@@H](NC(=O)[C@H](CCN)NC(=O)[C@@H](N)[C@@H](C)O)CCNC(=O)[C@H]([C@@H](C)O)NC(=O)[C@H](CCN)NC(=O)[C@H](CCN)NC1=O` [PMBN, polymyxin B nonapeptide] (H-T[Dab][Dab][Dab][dF]L[Dab][Dab]T; lactam 3-C (inferred); N-terminus assumed), for which the “MBC (complete killing) against E. coli” value in experiment [2] is above 20 µM. Further, in [3], the “MBC (complete killing) against P. aeruginosa” value (“MBC … against P. aeruginosa” for short) was above 20 µM. Moreover, the “inhibition of LPS-induced nitric oxide production (in words)” value in [4] and in [5] was “partially inhibited nitric oxide production only at 5 μM” each time. In experiment [6], the “inhibition of IL-10 release (in words)” value was “inhibit IL-10 release dose-dependently but at concentrations much higher than those required for CPA or PMB”. In experiment [7], this compound displayed a dissociation constant (Kd) of 3.8 µM.
For polymyxin B [PMB], the “inhibition of LPS-induced nitric oxide production (in words)” value in experiment [4], in [5] and in [8] was “dose-dependently active” throughout. Moreover, the “inhibition of TNF-α release (in words)” value in [9] was “slightly less activity compared to CPA”. Moreover, the “inhibition of IL-10 release (in words)” value in [6] is “slightly less activity compared to CPA”. Moreover, binding in experiment [7] was characterised by a dissociation constant (Kd) of 2.5 µM.
Turning to `CC(C)[C@@H]1NC(=O)[C@@H]2CCCN2C(=O)[C@@H](C)NC(=O)[C@H](CO)NC(=O)[C@H](C)NC(=O)[C@H](C(C)(C)C)NC(=O)[C@H](CCO)NC(=O)[C@H](Cc2c[nH]c3ccccc23)NC(=O)[C@H](CCO)NC(=O)[C@@H](CCN)NC(=O)[C@H](CCC(=O)O)NC(=O)[C@H](CCN)NC(=O)[C@H](Cc2ccc(O)cc2)NC(=O)[C@H]([C@@H](C)O)NC1=O` [MHM] (cyclo(VTY[Dab]E[dDab][hSer]W[hSer][Tle]AS[dA]P)), the “MBC (complete killing) against E. coli” value in [2] was above 20 µM. Also, the “MBC … against P. aeruginosa” value in experiment [3] was above 20 µM. Also, in experiment [9], the “concentration inhibiting TNF-α release” value is above 5 µM. The “concentration inhibiting IL-10 release” value in [6] is above 5 µM. This compound also gave an equilibrium dissociation constant (Kd) in [7] of 0.97 µM. Also, the “macrophage activation (TNF-α) by peptide-treated P. aeruginosa compared to viable untreated bacteria” value in experiment [1] is on record as “no significant reduction in macrophage activation”.
For the compound “chicken cathelicidin 2 (LVQRGRFGRFLRKIRRFRPKVTITIQGSARFG; Cathelicidin-2; UniProt Q2IAL7 123-154, looked up) [CATH-2, chicken cathelicidin 2, control peptide for which silent killing was originally described]”, the “macrophage activation (TNF-α) by peptide-treated P. aeruginosa compared to viable untreated bacteria” value in [1] was “significantly reduced immune response”.
For `CC[C@H](C)[C@@H]1NC(=O)[C@H](Cc2c[nH]c3ccccc23)NC(=O)[C@H]([C@@H](C)O)NC(=O)[C@@H]2CCCN2C(=O)[C@H]2CCCN2C(=O)[C@H](CO)NC(=O)[C@H](C)NC(=O)[C@H](CCN)NC(=O)[C@H](CCN)NC(=O)[C@H](Cc2c[nH]c3ccccc23)NC(=O)[C@H](CCN)NC(=O)[C@@H](CCN)NC(=O)[C@H](CCCN)NC(=O)[C@H](CCN)NC1=O` [murepavadin] (cyclo(TWI[Dab][Orn][dDab][Dab]W[Dab][Dab]AS[dP]P)), the “MBC (complete killing) against E. coli” value in experiment [2] is above 20 µM. Also, the “MBC … against P. aeruginosa” value in experiment [3] was 5 to 10 µM. Also, the “concentration inhibiting TNF-α release” value in experiment [9] is above 5 µM. Also, the “concentration inhibiting IL-10 release” value in experiment [6] is above 5 µM. The compound further gave a Kd in experiment [7] of 2.02 µM. The “macrophage activation (TNF-α) by peptide-treated P. aeruginosa compared to viable untreated bacteria” value in experiment [1] is “no significant reduction in macrophage activation”.
